This is an account of results in article PMC12797170, “Potent Competitive Inhibitors of Ecto-5′-nucleotidase (CD73) based on 6‑(Het)aryl-7-deazapurine Ribonucleoside 5′‑O‑Bisphosphonates” (ACS Pharmacology & Translational Science, 2025).

Data set [1] addresses T1, CYP1A2 (Homo sapiens, UniProt P05177).
T1 construct: assay run by Bienta (Enamine Biology Services)
T1 sequence (P05177 2-516 limits assumed): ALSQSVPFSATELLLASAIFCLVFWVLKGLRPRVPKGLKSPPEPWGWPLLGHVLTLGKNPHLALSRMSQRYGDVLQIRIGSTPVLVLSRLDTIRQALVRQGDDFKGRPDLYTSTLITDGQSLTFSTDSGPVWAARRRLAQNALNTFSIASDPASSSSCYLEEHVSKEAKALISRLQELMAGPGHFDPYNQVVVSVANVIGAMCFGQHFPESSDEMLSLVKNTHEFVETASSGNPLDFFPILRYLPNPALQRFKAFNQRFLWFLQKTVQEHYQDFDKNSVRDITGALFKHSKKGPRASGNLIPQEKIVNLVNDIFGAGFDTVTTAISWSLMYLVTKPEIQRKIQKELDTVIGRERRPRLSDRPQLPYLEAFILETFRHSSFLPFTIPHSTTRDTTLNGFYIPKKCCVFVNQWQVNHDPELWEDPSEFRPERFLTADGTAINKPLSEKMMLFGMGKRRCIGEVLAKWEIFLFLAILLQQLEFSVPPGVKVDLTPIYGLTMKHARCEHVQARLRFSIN
The data set is described as follows: In vitro CYP450 inhibition assay (Vivid). Type of data set: biochemical. The following applies: probe fluorogenic Vivid CYP450 substrate (not named). On the procedure: (§1) The study was performed by Bienta (Enamine Biology Services). The potential for CYP450 inhibition (isoforms 1A2, 2C9, 2C19, 2D6, and 3A4) was assessed by performing in vitro inhibition studies using fluorogenic CYP450 substrates with the corresponding CYP450 enzymes and NADPH regeneration system (Vivid CYP450 Screening Kits) with some minor changes to the manufacturer’s protocols. The fluorescent signal produced from the reaction is directly proportional to the cytochrome P450 activity. In the cases when tested compounds interfere with the CYP450 enzyme–substrate reaction, the fluorescent signal decreases.
(§2) Briefly, the tested compounds were first dissolved in DMSO at 100× concentration (1 mM) and diluted in buffer to 2.5× concentration (25 μM). […] After 10 min of preincubation, the enzymatic reaction was initiated by the addition of a mix of NADPH and the appropriate CYP450 substrates. The plate was incubated for the desired reaction time (25 min for CYP1A2, CYP2C9, CYP2D6, and CYP3A4; 60 min for CYP2C19) after which Stop Reagent was added and fluorescence measured using SpectraMax Paradigm Multi-Mode Microplate Reader. All test points were performed in quadruplicates at a concentration of 10 μM (1% DMSO).

Data set [2] concerns the target T2, CYP2C19 (Homo sapiens, UniProt P33261).
T2 construct: assay run by Bienta (Enamine Biology Services)
The data set is described as follows: In vitro CYP450 inhibition assay (Vivid). Type of data set: biochemical. The following applies: probe fluorogenic Vivid CYP450 substrate (not named). On the procedure:
as §1, §2

The target of data set [3] is T3, CYP2D6 (Homo sapiens, UniProt P10635).
T3 construct: assay run by Bienta (Enamine Biology Services)
T3 sequence (P10635 whole entry): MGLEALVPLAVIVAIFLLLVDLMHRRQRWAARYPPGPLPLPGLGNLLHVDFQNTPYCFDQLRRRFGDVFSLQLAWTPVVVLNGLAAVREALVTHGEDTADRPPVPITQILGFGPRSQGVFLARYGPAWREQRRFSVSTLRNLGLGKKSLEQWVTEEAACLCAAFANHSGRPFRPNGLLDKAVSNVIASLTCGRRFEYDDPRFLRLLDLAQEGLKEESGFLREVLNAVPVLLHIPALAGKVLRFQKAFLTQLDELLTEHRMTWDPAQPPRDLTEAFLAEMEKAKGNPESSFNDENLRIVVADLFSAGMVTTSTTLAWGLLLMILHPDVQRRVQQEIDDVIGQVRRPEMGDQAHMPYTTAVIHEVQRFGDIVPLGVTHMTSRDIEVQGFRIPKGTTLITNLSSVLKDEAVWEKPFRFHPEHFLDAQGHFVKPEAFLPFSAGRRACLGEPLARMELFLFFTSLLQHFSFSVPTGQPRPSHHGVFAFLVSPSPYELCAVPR
The experiment in a line: In vitro CYP450 inhibition assay (Vivid). In kind it is biochemical. The following applies: probe fluorogenic Vivid CYP450 substrate (not named). The method, then:
as §1, §2

Data set [4] addresses T4, CYP2C9 (Homo sapiens, UniProt P11712).
T4 construct: assay run by Bienta (Enamine Biology Services)
The data set is described as follows: In vitro CYP450 inhibition assay (Vivid). In kind it is biochemical. The following applies: probe fluorogenic Vivid CYP450 substrate (not named). The method, then: as §1, §2

Data set [5] has as its target T5, CYP3A4 (Homo sapiens, UniProt P08684).
T5 construct: assay run by Bienta (Enamine Biology Services)
The data set is described as follows: In vitro CYP450 inhibition assay (Vivid). In kind it is biochemical. The following applies: probe fluorogenic Vivid CYP450 substrate (not named). On the procedure:
as §1, §2

The nature of data set [6]: Plasma protein binding, mouse plasma. Type of data set: in vitro ADME. The following applies: mouse, plasma.
Data set [7] in a line: Plasma protein binding, equilibrium dialysis, human plasma. In kind it is in vitro ADME. The following applies: undiluted plasma, human plasma protein binding, read-out: PPB (hu) (converted).
The nature of data set [8]: in vitro. The following applies: mouse, plasma.
Data set [9] relates to panel of CYP isoforms (1A2, 2C9, 2C19, 2D6, and 3A4). The data set is described as follows: CYP450 inhibition, panel statement. Type of data set: biochemical, human. The following applies: up to 50 μM. The method, then:
as §1, §2

Data set [10] has as its system CCRF-CEM. The data set is described as follows: In vitro cytotoxic activity. The following applies: Homo sapiens. In kind it is cell-based. On the procedure: (§3) All the compounds were also tested for their in vitro cytotoxic activity on a small panel of four cancer cell lines (CCRF-CEM, HepG2, HeLa S3, HL-60) and nonmalignant human dermal fibroblasts (NHDF).
For data set [11], the system named is HeLa S3. The experiment in a line: In vitro cytotoxic activity. In kind it is cell-based. The following applies: Homo sapiens. The method, then:
as §3

The subject of data set [12] is HL-60. The data set is described as follows: In vitro cytotoxic activity. In kind it is cell-based. The following applies: Homo sapiens. On the procedure: as §3
Data set [13] concerns HepG2. The data set is described as follows: In vitro cytotoxic activity. The following applies: Homo sapiens. Type of data set: cell-based. On the procedure: as §3
The test system of data set [14] is nonmalignant human dermal fibroblasts (NHDF). The experiment in a line: In vitro cytotoxic activity. Type of data set: cell-based. The method, then:
as §3

Data set [15] in a line: Microsomal stability assay, human liver microsomes. Type of data set: in vitro ADME. The following applies: for Mics (hu) comp remaining 60 min: 10 μM; for microsomal CLint at 10 µM: pooled liver microsomes, pH 7.4, read-out: Mics (hu) CLint.
Where [16] appears, read: mouse plasma protein binding, read-out: PPB (m) (converted).
[17] abbreviates: Tables 2 and 4, mouse plasma, read-out: fup, fraction unbound in mouse plasma.

T4 sequence (P11712 whole entry): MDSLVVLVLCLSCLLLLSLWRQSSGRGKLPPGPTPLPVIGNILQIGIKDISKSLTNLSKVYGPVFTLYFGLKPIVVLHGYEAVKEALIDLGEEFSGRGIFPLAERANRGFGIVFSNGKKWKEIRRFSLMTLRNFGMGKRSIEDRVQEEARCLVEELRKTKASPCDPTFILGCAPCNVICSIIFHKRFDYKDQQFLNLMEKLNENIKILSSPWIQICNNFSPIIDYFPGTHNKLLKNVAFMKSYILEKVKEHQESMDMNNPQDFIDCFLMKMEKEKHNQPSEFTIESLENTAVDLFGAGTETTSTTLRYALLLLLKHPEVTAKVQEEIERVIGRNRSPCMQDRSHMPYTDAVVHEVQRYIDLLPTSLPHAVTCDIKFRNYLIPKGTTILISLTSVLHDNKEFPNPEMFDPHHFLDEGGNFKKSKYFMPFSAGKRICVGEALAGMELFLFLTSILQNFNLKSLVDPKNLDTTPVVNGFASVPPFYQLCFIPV
T5 sequence (P08684 2-503 limits assumed): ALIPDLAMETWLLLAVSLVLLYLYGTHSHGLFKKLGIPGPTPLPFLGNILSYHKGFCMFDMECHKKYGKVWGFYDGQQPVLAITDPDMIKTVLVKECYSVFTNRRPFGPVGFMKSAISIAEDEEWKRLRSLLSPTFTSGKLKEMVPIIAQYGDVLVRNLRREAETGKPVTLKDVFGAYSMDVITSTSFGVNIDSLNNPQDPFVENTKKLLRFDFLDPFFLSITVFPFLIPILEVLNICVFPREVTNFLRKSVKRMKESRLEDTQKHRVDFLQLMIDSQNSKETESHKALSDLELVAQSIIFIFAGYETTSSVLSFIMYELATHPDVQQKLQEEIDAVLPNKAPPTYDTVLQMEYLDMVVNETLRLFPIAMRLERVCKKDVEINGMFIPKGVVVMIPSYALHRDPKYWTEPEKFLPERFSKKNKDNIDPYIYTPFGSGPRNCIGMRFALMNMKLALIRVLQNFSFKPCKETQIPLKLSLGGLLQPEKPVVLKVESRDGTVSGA
T2 sequence (P33261 whole entry): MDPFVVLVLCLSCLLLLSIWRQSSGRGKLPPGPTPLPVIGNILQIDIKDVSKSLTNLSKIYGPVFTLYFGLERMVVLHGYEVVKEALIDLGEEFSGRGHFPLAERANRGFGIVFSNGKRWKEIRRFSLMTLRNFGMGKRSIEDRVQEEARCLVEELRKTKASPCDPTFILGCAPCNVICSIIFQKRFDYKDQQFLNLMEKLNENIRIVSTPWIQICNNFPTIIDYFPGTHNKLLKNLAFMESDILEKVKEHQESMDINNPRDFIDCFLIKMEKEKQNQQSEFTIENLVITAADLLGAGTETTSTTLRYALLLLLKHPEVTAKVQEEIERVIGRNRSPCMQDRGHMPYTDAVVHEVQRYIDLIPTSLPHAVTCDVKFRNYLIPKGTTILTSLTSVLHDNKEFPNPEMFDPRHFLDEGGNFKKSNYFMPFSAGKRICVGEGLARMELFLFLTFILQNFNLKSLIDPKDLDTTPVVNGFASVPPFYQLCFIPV

Take `O=P(O)(O)CP(=O)(O)OC[C@H]1O[C@@H](n2ccc3c(-c4cccc5ccncc45)ncnc32)[C@H](O)[C@@H]1O` [4A.18]: the inhibition at 25 min, 10 µM is 7% in [1], -10% in [3], 11% in data set [4] and -3% in [5]. In addition, the inhibition at 60 min, 10 µM in data set [2] came to 3%. Further, the fraction unbound at 4 h, 100 µM was 0.727 in [6] (setting [16]) and 0.195 in [7]. In data set [8], this molecule returned a half-life at 10 µM greater than 2 h. Also, the “inhibition of a panel of CYP isoforms” value in data set [9] was “no inhibition”. Further, the concentration for half-maximal inhibition (IC50) in data set [10], in data set [11], in data set [12], in [13] and in data set [14] was greater than 10 µM throughout. Moreover, the “Mics (hu) comp remaining 60 min” value in data set [15] was 105%. In addition, in data set [15], the microsomal CLint at 10 µM was less than 1 µL/min/mg.
For the molecule `O=P(O)(O)CP(=O)(O)OC[C@H]1O[C@@H](n2ccc3c(-c4ccc(F)c5ccccc45)nc(Cl)nc32)[C@H](O)[C@@H]1O` [7B.28], the inhibition at 25 min, 10 µM was 9% in [1], -6% in data set [3], 24% in data set [4] and 9% in [5]. Further, in data set [2], the inhibition at 60 min, 10 µM came to 22%. In addition, the fraction unbound at 4 h, 100 µM in data set [6] (setting [17]) was 0.23; in data set [6] (setting [16]), 0.232; in data set [7], no more than 0.01. In addition, in [8], the half-life at 10 µM was greater than 2 h. Also, the “inhibition of a panel of CYP isoforms” value in data set [9] is on record as “no inhibition”. Further, the 50% inhibitory concentration (IC50) in data set [10], in data set [11], in data set [12], in [13] and in data set [14] was greater than 10 µM throughout. The “Mics (hu) comp remaining 60 min” value in data set [15] is listed as 95%. Further, in [15], the microsomal CLint at 10 µM came out at 2 µL/min/mg.
As to `O=P(O)(O)CP(=O)(O)OC[C@H]1O[C@@H](n2ccc3c(-c4cccc5c4CCCC5)nc(Cl)nc32)[C@H](O)[C@@H]1O` [7B.12], the inhibition at 25 min, 10 µM in data set [1] was 0%; in data set [3], -13%; in data set [4], 15%; in data set [5], -8%. Also, the inhibition at 60 min, 10 µM in [2] stood at 10%. Further, the fraction unbound at 4 h, 100 µM in data set [6] (setting [17]) was 0.22; in [6] (setting [16]) it was 0.216; in [7], 0.005. The same molecule displayed a half-life at 10 µM in [8] greater than 2 h. Besides, the “inhibition of a panel of CYP isoforms” value in data set [9] is “no inhibition”. For the same molecule, the IC50 in [10], in data set [11], in [12], in data set [13] and in data set [14] was greater than 10 µM in each case. Besides, the “Mics (hu) comp remaining 60 min” value in data set [15] came out at 101%. Also, in data set [15], the microsomal CLint at 10 µM is less than 1 µL/min/mg.
Consider `Cc1nc(-c2ccc3ccccc3c2)c2ccn([C@@H]3O[C@H](COP(=O)(O)CP(=O)(O)O)[C@@H](O)[C@H]3O)c2n1` [18E.7], for which the fraction unbound at 4 h, 100 µM in data set [6] (setting [17]) was 0.22; in data set [6] (setting [16]), 0.221; in data set [7] it was 0.004. Besides, the half-life at 10 µM in data set [8] was greater than 2 h. Also, the IC50 in data set [10], in data set [11], in data set [12], in [13] and in data set [14] was greater than 10 µM throughout. Moreover, the “Mics (hu) comp remaining 60 min” value in data set [15] was 86%. Further, the microsomal CLint at 10 µM in data set [15] stood at 5 µL/min/mg.
